# Measurements published in PubChem BioAssay AID2060486 (Molecular Pharmacology Branch, DTP, NCI, 2025).
# pIC50: −log10 of the molar value.
# Tested on: IGROV1 complex spheroids (HUVEC, MSC), viability % test/control
# Assay: Anticancer human tumor IGROV1 cell line growth inhibition [GQUAD];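 note: spheroids exposed to compounds for 7 days before readout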;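 for viability, T/C: 100% = DMSO vehicle control viability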
# Conditions: for pIC50: curve of first compound; for viability, T/C: stronger effect = lower value
# Procedure, shortened: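 Tumor cells were grown as complex spheroids with HUVEC endothelial cells and mesenchymal stem cells as stroma. G-quadruplex stabilizers were combined with targeted agents over half-log dilutions from near the clinical Cmax, or from 10 microM.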
# [1] = second compound 0.0316 µM, first compound 0.0316 µM
# [2] = second compound 0.0316 µM, first compound 0.1 µM
# [3] = second compound 0.0316 µM, first compound 0.316 µM
# [4] = second compound 0.0316 µM, first compound 1 µM
# [5] = second compound 0.0316 µM, first compound 3.16 µM
# [6] = second compound 0.0316 µM, first compound 10 µM
# [7] = second compound 0.1 µM, first compound 0.0316 µM
# [8] = second compound 0.1 µM, first compound 0.1 µM
# [9] = second compound 0.1 µM, first compound 0.316 µM
# [10] = second compound 0.1 µM, first compound 1 µM
# [11] = second compound 0.1 µM, first compound 3.16 µM
# [12] = second compound 0.1 µM, first compound 10 µM
# [13] = second compound 0.316 µM, first compound 0.0316 µM
# [14] = second compound 0.316 µM, first compound 0.1 µM
# [15] = second compound 0.316 µM, first compound 0.316 µM
# [16] = second compound 0.316 µM, first compound 1 µM
# [17] = second compound 0.316 µM, first compound 3.16 µM
# [18] = second compound 0.316 µM, first compound 10 µM
# [19] = second compound 1 µM, first compound 0.0316 µM
# [20] = second compound 1 µM, first compound 0.1 µM
# [21] = second compound 1 µM, first compound 0.316 µM
# [22] = second compound 1 µM, first compound 1 µM
# [23] = second compound 1 µM, first compound 3.16 µM
# [24] = second compound 1 µM, first compound 10 µM
# [25] = second compound 3.16 µM, first compound 0.0316 µM
# [26] = second compound 3.16 µM, first compound 0.1 µM
# [27] = second compound 3.16 µM, first compound 0.316 µM
# [28] = second compound 3.16 µM, first compound 1 µM
# [29] = second compound 3.16 µM, first compound 3.16 µM
# [30] = second compound 3.16 µM, first compound 10 µM
# [31] = second compound 10 µM, first compound 0.0316 µM
# [32] = second compound 10 µM, first compound 0.1 µM
# [33] = second compound 10 µM, first compound 0.316 µM
# [34] = second compound 10 µM, first compound 1 µM
# [35] = second compound 10 µM, first compound 3.16 µM
# [36] = second compound 10 µM, first compound 10 µM
smiles,measurement,setting,value
CC(C)n1c(=O)n(C)c2cnc3cc(F)c(-c4ccc(OCCCN5CCCCC5)nc4)cc3c21 + CN(C)c1ccc(Nc2c3ccc(NC(=O)CCN4CCCC4)cc3nc3cc(NC(=O)CCN4CCCC4)ccc23)cc1,pIC50,second compound 0.0316 µM,5.40
same,pIC50,second compound 0.1 µM,5.42
same,pIC50,second compound 0.316 µM,5.39
same,pIC50,second compound 1 µM,5.82
same,pIC50,second compound 3.16 µM,> 7.50
same,pIC50,second compound 10 µM,> 7.50
same,"viability, T/C",[1],91.8%
same,"viability, T/C",[2],70.1%
same,"viability, T/C",[3],90.8%
same,"viability, T/C",[4],72.2%
same,"viability, T/C",[5],59.2%
same,"viability, T/C",[6],15.5%
same,"viability, T/C",[7],93.3%
same,"viability, T/C",[8],59.2%
same,"viability, T/C",[9],87.3%
same,"viability, T/C",[10],72%
same,"viability, T/C",[11],55.2%
same,"viability, T/C",[12],18%
same,"viability, T/C",[13],86.1%
same,"viability, T/C",[14],69.6%
same,"viability, T/C",[15],83.4%
same,"viability, T/C",[16],74.8%
same,"viability, T/C",[17],58.9%
same,"viability, T/C",[18],16.7%
same,"viability, T/C",[19],54.6%
same,"viability, T/C",[20],53.1%
same,"viability, T/C",[21],58.9%
same,"viability, T/C",[22],55.6%
same,"viability, T/C",[23],40%
same,"viability, T/C",[24],13%
same,"viability, T/C",[25],49.7%
same,"viability, T/C",[26],39.4%
same,"viability, T/C",[27],27%
same,"viability, T/C",[28],21.9%
same,"viability, T/C",[29],19.8%
same,"viability, T/C",[30],10.7%
same,"viability, T/C",[31],18.3%
same,"viability, T/C",[32],18.8%
same,"viability, T/C",[33],11.4%
same,"viability, T/C",[34],10.5%
same,"viability, T/C",[35],7.56%
same,"viability, T/C",[36],3.54%
CC1COCCN1c1cc(-c2ccnn2C)c2ccnc(-c3ccn[nH]3)c2n1 (stereo unspecified) + CN(C)c1ccc(Nc2c3ccc(NC(=O)CCN4CCCC4)cc3nc3cc(NC(=O)CCN4CCCC4)ccc23)cc1,pIC50,second compound 0.0316 µM,7.29
same,pIC50,second compound 0.1 µM,7.30
same,pIC50,second compound 0.316 µM,7.43
same,pIC50,second compound 1 µM,7.37
same,pIC50,second compound 3.16 µM,> 7.50
same,pIC50,second compound 10 µM,> 7.50
same,"viability, T/C",[1],66.2%
same,"viability, T/C",[2],26.3%
same,"viability, T/C",[3],12.3%
same,"viability, T/C",[4],7.64%
same,"viability, T/C",[5],4.82%
same,"viability, T/C",[6],3.77%
same,"viability, T/C",[7],66.3%
same,"viability, T/C",[8],24.2%
same,"viability, T/C",[9],11.8%
same,"viability, T/C",[10],7.54%
same,"viability, T/C",[11],5.16%
same,"viability, T/C",[12],3.61%
same,"viability, T/C",[13],54.9%
same,"viability, T/C",[14],21.5%
same,"viability, T/C",[15],9.35%
same,"viability, T/C",[16],6.62%
same,"viability, T/C",[17],5.67%
same,"viability, T/C",[18],3.51%
same,"viability, T/C",[19],57.8%
same,"viability, T/C",[20],28.5%
same,"viability, T/C",[21],11.7%
same,"viability, T/C",[22],7.28%
same,"viability, T/C",[23],5.79%
same,"viability, T/C",[24],3.85%
same,"viability, T/C",[25],44%
same,"viability, T/C",[26],18.2%
same,"viability, T/C",[27],11.2%
same,"viability, T/C",[28],7.75%
same,"viability, T/C",[29],4.98%
same,"viability, T/C",[30],3.18%
same,"viability, T/C",[31],20.6%
same,"viability, T/C",[32],10.5%
same,"viability, T/C",[33],9.22%
same,"viability, T/C",[34],5.87%
same,"viability, T/C",[35],5.04%
same,"viability, T/C",[36],3.72%
CC1COCCN1c1cc(C2(O)CC3CCC(C2)O3)c2cnn(-c3ccn[nH]3)c2n1 (stereo unspecified) + CN(C)c1ccc(Nc2c3ccc(NC(=O)CCN4CCCC4)cc3nc3cc(NC(=O)CCN4CCCC4)ccc23)cc1,pIC50,second compound 0.0316 µM,7.43
same,pIC50,second compound 0.1 µM,> 7.50
same,pIC50,second compound 0.316 µM,> 7.50
same,pIC50,second compound 1 µM,> 7.50
same,pIC50,second compound 3.16 µM,> 7.50
same,pIC50,second compound 10 µM,> 7.50
same,"viability, T/C",[1],54.8%
same,"viability, T/C",[2],20%
same,"viability, T/C",[3],7.64%
same,"viability, T/C",[4],5.68%
same,"viability, T/C",[5],2.88%
same,"viability, T/C",[6],1.63%
same,"viability, T/C",[7],45%
same,"viability, T/C",[8],22.7%
same,"viability, T/C",[9],9.08%
same,"viability, T/C",[10],5.11%
same,"viability, T/C",[11],3.48%
same,"viability, T/C",[12],1.19%
same,"viability, T/C",[13],45.8%
same,"viability, T/C",[14],19%
same,"viability, T/C",[15],9.25%
same,"viability, T/C",[16],4.51%
same,"viability, T/C",[17],4.65%
same,"viability, T/C",[18],1.93%
same,"viability, T/C",[19],42.6%
same,"viability, T/C",[20],17.5%
same,"viability, T/C",[21],8.86%
same,"viability, T/C",[22],5.16%
same,"viability, T/C",[23],4.18%
same,"viability, T/C",[24],1.58%
same,"viability, T/C",[25],38.7%
same,"viability, T/C",[26],13.4%
same,"viability, T/C",[27],8.17%
same,"viability, T/C",[28],4.73%
same,"viability, T/C",[29],4%
same,"viability, T/C",[30],1.78%
same,"viability, T/C",[31],17%
same,"viability, T/C",[32],10.2%
same,"viability, T/C",[33],5.93%
same,"viability, T/C",[34],4.42%
same,"viability, T/C",[35],3.55%
same,"viability, T/C",[36],1.05%
